The values below come from article PMC7143967, “Extensive Therapeutic Drug Monitoring of Colistin in Critically Ill Patients Reveals Undetected Risks” (Microorganisms, 2020).

Bridge positions count the residues as written; N and C are the ends. Square brackets hold non-standard residues; d marks the D form. Peptide text beside a SMILES is read from it. * marks the point of attachment. X1 = CC[C@H](C)CCCCC(=O)*; Dab = NCC[C@H](N)C(=O)O Some results are limits rather than exact numbers.

The test system of data set [1] is carbapenem resistant A. baumannii (CRAB). Kind of data set: Clinical/microbiological outcome of CMS/Colistin treatment. It is filed as in vivo, human (critically ill ICU patients). As to the method: Microbiology testing was performed by the university’s Department of Microbiology. Samples included regular swab testing for screening purposes (nasal, inguinal, anal, tracheal) and specific testing of blood cultures, wound samples for detection of tissue infection, bronchoalveolar lavage (BAL) fluid and urine.

Data set [2] in a line: Therapeutic drug monitoring of CMS and Colistin plasma levels by HPLC-MS/MS. As to the method:
Eight critically ill patients, some of them under renal replacement therapy (continuous venovenous hemodialysis (CVVHD), intermittent HD (IHD)), infected with gram negative MDR pathogens were treated with CMS. Daily measurements of serum creatinine levels and estimation of glomerular filtration rate using the CKD-EPI Creatinine (eGFR CKD-EPI) equation [16] were used to monitor renal function. Samples were collected multiple times daily prior to/after every dose of CMS for trough/peak level determination of CMS and Colistin. After termination of the Colistin treatment course, samples were derived from the individual patient, to ensure complete and timely removal of Colistin. Blood samples were immediately centrifuged and refrigerated. The plasma was frozen and kept at −20 °C until analysis. After analysis samples were kept at −80 °C for long term storage.
We aimed for target Colistin serum levels of >2 mg/L in patients suffering from A. baumannii infection alone, or >4 mg/L in patients with singular Pseudomonas infections or combined infections. Dosing was done with or without a loading dose of 6–9 million international units (IU) Colistin and subsequent doses of either 3 × 2 million IU/day, 3 × 3 million IU/day, 3 × 4 million IU or 2 × 4.5 million IU, as indicated.
A total of 50 μL of plasma samples, calibrators and controls were precipitated with 200 μL of ice cold isopropanol containing 0.5 μg/mL polymyxin B as internal standard and 0.02% TFA. After 10 min at −20 °C, centrifuging 5 min with 20,000 g at 4 °C, 100 μL of the supernatant was diluted with 400 μL of the appropriate solvent (water or 30% DMSO in water respectively) and put into the auto sampler at 4 °C. LC-MS/MS system: Dionex UltiMate 3000 XRS autosampler, XRS quaternary UHPLC pump, RS Column compartment. Column used: Aeris Peptide 1.7 μm XB-C18 2.1 × 100 mm (Phenomenex), 40 °C. Mobile phases: Gradient starting with 19% lcms-grade acetonitrile (Baker) and 0.05% TFA (Sigma) in water (Milli-Q) to 40% within 1.6 min at a flow rate of 500 μL/min. Mass spectrometer: TSQ-Vantage triple quad mass spectrometer (Thermo Fisher Scientific, San Jose, CA, USA), HESI-source, positive electrospray ionization mode, settings: ionization voltage 3500 V, vaporizer temperature 500 °C, sheath gas flow 40 (arb), auxiliary gas flow 15 (arb), capillary temperature 200 °C and declustering voltage 10 V. For multiple reaction monitoring (MRM), argon was used as collision gas at a pressure of 1.1 × 10^−3 Torr. Doubly charged parent ions of Colistins (578.5/100.9, 585.4/100.9) and polymyxin B (602.4/100.9) were used for fragmentation and the product ions and collision energies have been optimized for best intensities. A detailed procedure protocol including description of standardization, sample preparation, sample stability etc., is available upon request.

On the set-up of data set [3]: species or system human (critically ill ICU patients). The following applies: in vivo. An excerpt:
(§1) Blood samples were immediately centrifuged and refrigerated.

The conditions of data set [4]: cited from earlier work; for elimination by prolonged intermittent RRT: ref Schmidt et al. [24]. The source says: Colistin was isolated from Bacillus polymyxa subsp. colistinus and consists of a cyclic heptapeptide and a tripeptide side chain acetylated at the N-terminus by a fatty acid moiety. Earlier commercially available Colistin consisted of a mixture of several chemically related subcomponents, including the two major components Colistin A and Colistin B, with a known, concentration-dependent (nephro-, neuro-, oto-) toxicity. […] Following par ... || While CMS is excreted primarily via the kidneys, Colistin elimination pathways remain unclear. […] We were able to calculate elimination half-life for Colistin in 6 out of 8 patients. In our cohort, elimination half-time was greatly extended to a mean of 22.0 h (Figure 2A). […] Subsequently CRRT became necessary due to sustained renal failu ...

The next data set in a line: clinical. The following applies: for t1/2 of Colistin: first-order fit. It is filed as in vivo, human (critically ill ICU patients). The protocol: as §1
While CMS is excreted primarily via the kidneys, Colistin elimination pathways remain unclear. […] We were able to calculate elimination half-life for Colistin in 6 out of 8 patients. In our cohort, elimination half-time was greatly extended to a mean of 22.0 h (Figure 2A). The individual half-life kinetics, including details on curve fitting, are provided in the Supplementary Materials (Supplementary Materials “Elimination half times of Colistin” Figures S1–S6). Individual elimination kinetics followed a first-order kinetic. In one patient (Patient 2), we established CRRT in the midst of the elimination time course. This allowed us to forward project kinetics without CRRT and backwards interpolate kinetics with CRRT. […] The amount of available CMS relevantly impacts upon Colistin levels, since CMS acts as a pro-drug. Thus, elimination of CMS is key to reduce Colistin plasma levels whereas CMS accumulation is the source for Colistin build up. CMS elimination can be rapidly affected by changes of renal function and distribution volume. CMS trough levels might indicate potential accumulation of CMS and subsequent accumulation of Colistin. This is of potential relevance when renal CMS elimination might be impaired.
Extensive Therapeutic Drug Monitoring Of
Supplemental material 1 – elimination half times of Colistin
Figure S1: plasma levels of Colistin after cessation of CMS administration. (A) linear
scaling of colistin plasma levels in [mg/L]; fit of an 1st decay elimination curve, y =
1,5111e-0,029x, R2= 0.97, p<0.001; (B) linear scaling colistin plasma levels in [mg/L] after
(also on this page, place not known: 1 st Colistin [mg/L] ln (Colistin [mg/L]) time [h] time [h] (A) (B))
(1 picture or pasted object on this page, not shown here)

Take Colistin methanosulfate [CMS]: the result of treatment in data set [1] (Patient 3, CRAB bloodstream and wound infection, after dose increase to 3 × 4 million IU) was “eradication of both bloodstream and wound infection”; in data set [1] (Patient 4, in combination with surgical focus eradication, MDR Pseudomonas infection and colonization persisted) it was “the CRAB infection was eliminated”; in data set [1] (Patient 5, 3 × 4 million IU, colonization with CRAB persisted), “successfully eradicated CRAB from the bloodstream and from pulmonary samples”; in data set [1] (Patient 6, second treatment cycle, recurrent CRAB bloodstream infection, blood stream samples), “eradication of CRAB within 3 days of treatment”; in data set [1] (Patient 7, first treatment cycle, 6 days of CMS), “successful eradication of CRAB from wound samples”; in data set [1] (Patient 7, second treatment cycle, 4.5 million IU twice daily, resistant colonization remained), “the bloodstream infection was successfully eradicated”. Besides, the mean CMS trough level in data set [2] (in vivo) was determined as 1.6 mg/L. For the same compound, the “mean CMS peak level” value in data set [2] (plasma, sampled 30 min after CMS injection, all patients pooled, mean (±SD), n = 381, HPLC-MS/MS, unit not given) is given as 8.7 (±4.1, n = 381). For the same compound, the “renal function (eGFR) under treatment” value in data set [3] is “gradual decline of renal function”. Also, the “portion of CMS undergoing renal excretion” value in data set [4] was “about two thirds”. The “elimination by prolonged intermittent RRT” value in data set [4] was “up to 50%”.

For `CC[C@H](C)CCCCC(=O)N[C@@H](CCN)C(=O)N[C@H](C(=O)N[C@@H](CCN)C(=O)N[C@H]1CCNC(=O)[C@H]([C@@H](C)O)NC(=O)[C@H](CCN)NC(=O)[C@H](CCN)NC(=O)[C@H](CC(C)C)NC(=O)[C@@H](CC(C)C)NC(=O)[C@H](CCN)NC1=O)[C@@H](C)O` [Colistin] (X1-[Dab]T[Dab][Dab][Dab][dL]L[Dab][Dab]T; lactam 4-C), the “t1/2 of Colistin” value is 23.6 h in the data set “clinical” (Patient 1, eGFR 119 mL/min/1.73m^2, RRT none, R2 = 0.97); 23.43 h in the data set “clinical” (Patient 2, eGFR 27 mL/min/1.73m^2, RRT none, R2 = 0.99); 19.5 h in the data set “clinical” (Patient 4, eGFR 58 mL/min/1.73m^2, RRT CVVHDF, R2 = 0.996); 16.5 h in “clinical” (Patient 5, eGFR 59 mL/min/1.73m^2, RRT IHD, R2 = 0.98); 30.9 h in the data set “clinical” (Patient 6, eGFR 99 mL/min/1.73m^2, RRT CVVHDF, R2 = 0.91); 17.9 h in the data set “clinical” (Patient 8, eGFR 51 mL/min/1.73m^2, RRT IHD, R2 = 0.999). For the same compound, the half-life in the data set “clinical” (human, in vivo, mean of 6 out of 8 patients, plasma after end of CMS treatment, first-order kinetic, read-out: elimination half-time of Colistin, mean (converted)) is 22 h. Besides, the result of treatment in data set [1] (Patient 1, CRAB wound infection, 3 × 3 million IU CMS, 7 days, colonization persisted) is given as “eradication of the CRAB wound infection was achieved”; in data set [1] (Patient 2, CRAB bloodstream, wound and pulmonary infection, colonization and pulmonary infection remained), “cured the bloodstream infection”; in data set [1] (Patient 6, first treatment cycle, bloodstream and pulmonary CRAB infection), “bloodstream infection was cured but colonization persisted”. The “time to Colistin levels >2 mg/L after dose increase” value in data set [2] (Patient 2, dose increased from 3 × 2 to 3 × 4 million IU) came to 48 h. The “time to sufficient Colistin levels” value in data set [2] (Patient 4, loading dose 9 million IU, then 3 × 3 million IU CMS daily, target 4 mg/L) is “eight”. For the same compound, the “time to target Css,avg of ~4 mg/L after dose increase” value in data set [2] (Patient 4, under CVVHDF, 3 × 4 million IU per day) was “four”. Besides, the “time to Colistin plasma levels between 3–4 mg/L” value in data set [2] (Patient 6, second treatment cycle, loading dose 9 million IU, then 3 million IU CMS three times a day) lay within 8 to 16 h. In data set [2] (Patient 7, second treatment cycle, loading dose 9 million IU, 4.5 million IU twice daily, CVVHDF), the “time to target Colistin plasma levels” value is recorded as “three”. In data set [2] (Patient 8, IHD-adjusted dosing with loading dose of 9 million IU, CMS stopped after 3 days), the accumulation in plasma result is recorded as “rapid accumulation”. This compound registered a level at 48 h in data set [2] (human, in vivo) above 2000 ng/mL. Further, the level at 96 h in data set [2] (human, in vivo) is around 4000 ng/mL. Besides, in data set [2] (human, in vivo), the level at 720 h was below 2000 ng/mL. The “mean Colistin peak level” value in data set [2] (plasma, sampled 30 min after CMS injection, all patients pooled, mean (±SD), n = 383, HPLC-MS/MS, unit not given) is reported as 3.5 (±1.3, n = 383). Further, the “mean Colistin trough level” value in data set [2] (plasma, sampled immediately prior to CMS injection, all patients pooled, mean (±SD), n = 386, HPLC-MS/MS, unit not given) is recorded as 3.45 (±1.3, n = 386). The “elimination by prolonged intermittent RRT” value in data set [4] is listed as “up to 50%”.
